Values quoted from earlier work as cited in patent US8946148B2 (Ambrx, Inc., priority 2007, dated 2015).

Test system: patients with NIDDM and impaired glucose tolerance

## Cc1c(C)c2c(c(C)c1O)CCC(C)(COc1ccc(CC3SC(=O)NC3=O)cc1)O2 (stereo not shown) [Troglitazone]
  effect on insulin resistance: reverse insulin resistance
